We go through 42 compounds from ChEMBL document CHEMBL3352572, “Design, synthesis and antioxidant activity evaluation of novel β-elemene derivatives” (Bioorg Med Chem Lett, 2014).

Data set [1] deals with HUVEC. Briefly: Antioxidant activity in HUVEC assessed as suppression of ROS production by measuring fluorescent intensity index at 5 uM pre-incubated for 24 hrs before H2O2 stimulation for 2 hrs by DCF dye based fluorimetric assay. The format is functional, Homo sapiens.
Data set [2] has as its system HUVEC. Briefly: Antioxidant activity in HUVEC assessed as suppression of ROS production by measuring fluorescent intensity index at 100 uM pre-incubated for 24 hrs before H2O2 stimulation for 2 hrs by DCF dye based fluorimetric assay. The format is functional, cell-based. To be noted: Homo sapiens.
Data set [3] relates to HUVEC. Briefly: Cytoprotective activity in H2O2-treated HUVEC assessed as cell survival at 0.5 uM pre-incubated for 24 hrs before H2O2 stimulation for 2 hrs by MTT assay (reference value: 66.91%). Format: functional. The note with it: Homo sapiens, read-out: Survival. A general note: Tetrazolium dyes change colour on reduction, which living cells bring about.
The subject of data set [4] is HUVEC. The data set can be described thus: Reduction in LDH release in H2O2-treated HUVEC at 0.5 to 50 uM pre-incubated for 24 hrs before H2O2 stimulation for 2 hrs. The note with it: Homo sapiens. The format is functional, cell-based.
Data set [5] deals with HUVEC. The data set can be described thus: Reduction in MDA level in H2O2-treated HUVEC at 0.5 to 50 uM pre-incubated for 24 hrs before H2O2 stimulation for 2 hrs. The note with it: Homo sapiens. The format is functional, cell-based.
For data set [6], the system named is HUVEC. The data set can be described thus: Increase in SOD activity in H2O2-treated HUVEC at 0.5 to 50 uM pre-incubated for 24 hrs before H2O2 stimulation for 2 hrs. The format is functional, cell-based. The note with it: Homo sapiens.
The subject of data set [7] is HUVEC. The data set can be described thus: Antioxidant activity in HUVEC assessed as suppression of ROS production at 0.5 uM pre-incubated for 24 hrs before H2O2 stimulation for 2 hrs by DCF dye based fluorescence microscopy. Format: functional, cell-based. To be noted: Homo sapiens.
Data set [8] deals with HUVEC. The data set can be described thus: Antioxidant activity in HUVEC assessed as suppression of ROS production pre-incubated for 24 hrs before H2O2 stimulation for 2 hrs by DCF dye based fluorescence microscopy. Format: functional, cell-based. To be noted: Homo sapiens.
Data set [9] has as its system HUVEC. The data set can be described thus: Increase in nitric oxide secretion in H2O2-treated HUVEC at 0.5 to 50 uM pre-incubated for 24 hrs before H2O2 stimulation for 2 hrs. The format is functional, cell-based. To be noted: Homo sapiens.
In data set [10] the test system is HUVEC. The data set can be described thus: Cytoprotective activity in H2O2-treated HUVEC assessed as cell survival at 50 uM pre-incubated for 24 hrs before H2O2 stimulation for 2 hrs by MTT assay (reference value: 66.91%). Format: functional. To be noted: Homo sapiens, read-out: Survival.
Data set [11] has as its system HUVEC. Briefly: Cytotoxicity against HUVEC assessed as cell death 1000 uM after 24 hrs by MTT assay. To be noted: human. The format is cell-based.
Data set [12] relates to HUVEC. Briefly: Cytoprotective activity in H2O2-treated HUVEC assessed as reduction in H2O2-induced cell death at 0.5 to 50 uM pre-incubated for 24 hrs before H2O2 stimulation for 2 hrs by MTT assay. The note with it: Homo sapiens. The format is functional, cell-based.
A short description of data set [13]: Cytotoxicity against HUVEC assessed as cell survival at 0.5 to 50 uM after 24 hrs by MTT assay. Format: cell-based. To be noted: human, HUVEC cells; read-out: Survival.
Data set [14] has as its system HUVEC. The data set can be described thus: Antioxidant activity in HUVEC assessed as suppression of ROS production by measuring fluorescent intensity index at 10 uM pre-incubated for 24 hrs before H2O2 stimulation for 2 hrs by DCF dye based fluorimetric assay. Format: functional, Homo sapiens.

Take `C=C[C@]1(C)CC[C@@H](C(=C)C)C[C@H]1C(=C)COC(=O)c1ccc([N+](=O)[O-])cc1`: the Flu intensity with HUVEC [1] was found to be 1.393.

Turning to `C=C[C@]1(C)CC[C@@H](C(=C)C)C[C@H]1C(=C)COC(=O)CC`, the Flu intensity in the data set on HUVEC [1] turned out to be 1.383.

In the case of `C=C[C@]1(C)CC[C@@H](C(=C)C)C[C@H]1C(=C)COC(=O)CCC`, in the data set on HUVEC [1], the Flu intensity came out at 1.338.

In the case of `C=C[C@]1(C)CC[C@@H](C(=C)COC(=O)c2ccc(C)cc2)C[C@H]1C(=C)C`, the Flu intensity in the data set on HUVEC [1] worked out at 1.411.

`C=C[C@]1(C)CC[C@@H](C(=C)C)C[C@H]1C(=C)COC(=O)c1ccc(F)cc1`: the Flu intensity in the data set on HUVEC [1] was 1.306.

As to `C=C[C@]1(C)CC[C@@H](C(=C)COC(=O)c2ccncc2)C[C@H]1C(=C)C`, the Flu intensity in the data set with HUVEC [1] came to 1.447.

Regarding VITAMIN E, the Flu intensity in the data set on HUVEC [2] was 1.23.

Take `C=C[C@]1(C)CC[C@@H](C(=C)COC(=O)c2ccccc2)C[C@H]1C(=C)C`: in the data set with HUVEC [1], the Flu intensity is 1.355.

Take `C=C[C@]1(C)CC[C@@H](C(=C)COC(=O)c2ccccc2C(=O)O)C[C@H]1C(=C)C`: the Flu intensity with HUVEC [1] turned out to be 1.416.

Consider `C=C[C@]1(C)CC[C@@H](C(=C)C)C[C@H]1C(=C)COC(=O)c1ccc(OC)cc1`, for which the Flu intensity with HUVEC [1] turned out to be 1.387.

For the compound `C=C[C@]1(C)CC[C@@H](C(=C)C)C[C@H]1C(=C)COC(=O)c1ccccc1`, the Flu intensity with HUVEC [1] is given as 1.445.

With `C=C[C@]1(C)CC[C@@H](C(=C)C)C[C@H]1C(=C)COC(=O)c1ccccc1C(=O)O`, the Flu intensity in the data set with HUVEC [1] turned out to be 1.415.

`C=C[C@]1(C)CC[C@@H](C(=C)COC(=O)c2ccc(Cl)cc2)C[C@H]1C(=C)C`: the Flu intensity with HUVEC [1] amounted to 1.324.

Regarding `C=C[C@]1(C)CC[C@@H](C(=C)COC(=O)CC)C[C@H]1C(=C)C`, the Flu intensity with HUVEC [1] was 1.322.

Consider `C=C[C@]1(C)CC[C@@H](C(=C)C)C[C@H]1C(=C)CO`, for which the Flu intensity in the data set with HUVEC [1] was 1.37.

With `C=C[C@]1(C)CC[C@@H](C(=C)C)C[C@H]1C(=C)COC(C)=O`, the Flu intensity in the data set with HUVEC [1] was 1.322.

Consider `C=C[C@]1(C)CC[C@@H](C(=C)COC(=O)CCC)C[C@H]1C(=C)C`, for which the Flu intensity in the data set with HUVEC [1] was 1.365.

For `C=C[C@]1(C)CC[C@@H](C(=C)COC(=O)CCC(=O)OCC(=C)[C@@H]2CC[C@@](C)(C=C)[C@H](C(=C)C)C2)C[C@H]1C(=C)C`, the Flu intensity in the data set on HUVEC [1] is listed as 1.092. The viability at 0.5 µM in the data set with HUVEC [3] turned out to be 81.2%. In addition, the inhibition entry in the data set on HUVEC [4], with HUVEC [5], in the data set on HUVEC [7] and in the data set on HUVEC [8] was “Dose-dependent effect” each time. The Activity result was “Dose-dependent effect” in the data set on HUVEC [6], “Dose-dependent effect” in the data set with HUVEC [9], “<= 50%” in the data set with HUVEC [11] and “Dose-dependent effect” in the data set on HUVEC [12]. Moreover, in the data set on HUVEC [10], the viability at 50 µM was found to be 100%. Moreover, in [13], the viability at 24 h, up to 50 µM is over 92%.

Consider `C=C[C@]1(C)CC[C@@H](C(=C)C)C[C@H]1C(=C)COC(=O)c1ccncc1`, for which, in the data set on HUVEC [1], the Flu intensity was 1.411.

Turning to `C=C[C@]1(C)CC[C@@H](C(=C)C)C[C@H]1C(=C)C`, the Flu intensity was found to be 1.281 in the data set with HUVEC [1] and 1.23 in the data set with HUVEC [14].

On to `C=C[C@]1(C)CC[C@@H](C(=C)C)C[C@H]1C(=C)COC(=O)c1cccc(F)c1`, for which the Flu intensity in the data set on HUVEC [1] is recorded as 1.39.

Turning to `C=C[C@]1(C)CC[C@@H](C(=C)CO)C[C@H]1C(=C)C`, the Flu intensity in the data set on HUVEC [1] was 1.291.

Take `C=C[C@]1(C)CC[C@@H](C(=C)COC(C)=O)C[C@H]1C(=C)C`: the Flu intensity in the data set with HUVEC [1] is reported as 1.391.

`C=C[C@]1(C)CC[C@@H](C(=C)C)C[C@H]1C(=C)COC(=O)CCC(=O)O`: the Flu intensity with HUVEC [1] worked out at 1.468.

For the compound `C=C[C@]1(C)CC[C@@H](C(=C)COC(=O)c2ccco2)C[C@H]1C(=C)C`, the Flu intensity in the data set with HUVEC [1] is listed as 1.488.

For `C=C[C@]1(C)CC[C@@H](C(=C)C)C[C@H]1C(=C)COC(=O)c1ccccc1Cl`, the Flu intensity in the data set with HUVEC [1] is recorded as 1.443.

In the case of `C=C[C@]1(C)CC[C@@H](C(=C)C)C[C@H]1C(=C)COC(=O)c1ccco1`, the Flu intensity in the data set with HUVEC [1] was determined as 1.39.

With `C=C[C@]1(C)CC[C@@H](C(=C)COC(=O)c2cccc(F)c2)C[C@H]1C(=C)C`, in the data set with HUVEC [1], the Flu intensity amounted to 1.39.

In the case of `C=C[C@]1(C)CC[C@@H](C(=C)COC(=O)c2ccccc2O)C[C@H]1C(=C)C`, the Flu intensity in the data set with HUVEC [1] stood at 1.286.

For the compound `C=C[C@]1(C)CC[C@@H](C(=C)C)C[C@H]1C(=C)COC(=O)c1ccccc1C(=O)OCC(=C)[C@@H]1C[C@H](C(=C)C)CC[C@@]1(C)C(=C)C`, the Flu intensity in the data set on HUVEC [1] is on record as 1.168.

On to `C=C[C@]1(C)CC[C@@H](C(=C)COC(=O)CCC(=O)O)C[C@H]1C(=C)C`, for which the Flu intensity in the data set with HUVEC [1] was found to be 1.403.

As for `C=C[C@]1(C)CC[C@@H](C(=C)COC(=O)c2ccc(F)cc2)C[C@H]1C(=C)C`, the Flu intensity with HUVEC [1] stood at 1.417.

Consider `C=C[C@]1(C)CC[C@@H](C(=C)C)C[C@H]1C(=C)COC(=O)c1ccc(Cl)cc1`, for which the Flu intensity in the data set with HUVEC [1] was determined as 1.458.

Take `C=C[C@]1(C)CC[C@@H](C(=C)C)C[C@H]1C(=C)COC(=O)c1ccccc1O`: the Flu intensity in the data set on HUVEC [1] amounted to 1.376.

As to `C=C[C@]1(C)CC[C@@H](C(=C)C)C[C@H]1C(=C)COC(=O)c1ccc(C)cc1`, in the data set on HUVEC [1], the Flu intensity is given as 1.322.

In the case of `C=C[C@]1(C)CC[C@@H](C(=C)COC(=O)c2ccc(OC)cc2)C[C@H]1C(=C)C`, the Flu intensity in the data set with HUVEC [1] stood at 1.429.

Regarding `C=C[C@]1(C)CC[C@@H](C(=C)COC(=O)c2ccccc2C(=O)OCC(=C)[C@@H]2CC[C@@](C)(C=C)[C@H](C(=C)C)C2)C[C@H]1C(=C)C`, the Flu intensity with HUVEC [1] was 1.114. Moreover, the inhibition result with HUVEC [4], in the data set with HUVEC [5], in the data set on HUVEC [7] and in the data set on HUVEC [8] was “Dose-dependent effect” each time. The Activity result is “Dose-dependent effect” with HUVEC [6], “Dose-dependent effect” with HUVEC [9], “<= 50%” in the data set on HUVEC [11] and “Dose-dependent effect” in the data set on HUVEC [12]. Further, the viability at 50 µM in the data set with HUVEC [10] worked out at 97.9%. In data set [13], the viability at 24 h, up to 50 µM is over 92%.

With `C=C[C@]1(C)CC[C@@H](C(=C)C)C[C@H]1C(=C)COC(=O)CCC(=O)OCC(=C)[C@@H]1C[C@H](C(=C)C)CC[C@@]1(C)C(=C)C`, in the data set on HUVEC [1], the Flu intensity was found to be 1.123.

In the case of `C=C[C@]1(C)CC[C@@H](C(=C)COC(=O)c2ccccc2Cl)C[C@H]1C(=C)C`, the Flu intensity in the data set on HUVEC [1] is reported as 1.388.

For `C=C[C@]1(C)CC[C@@H](C(=C)C)C[C@H]1C(=C)COC(=O)c1cccnc1`, the Flu intensity in the data set with HUVEC [1] is 1.397.

In the case of `C=C[C@]1(C)CC[C@@H](C(=C)COC(=O)c2cccnc2)C[C@H]1C(=C)C`, in the data set with HUVEC [1], the Flu intensity is on record as 1.524.

As for `C=C[C@]1(C)CC[C@@H](C(=C)COC(=O)c2ccc([N+](=O)[O-])cc2)C[C@H]1C(=C)C`, the Flu intensity in the data set with HUVEC [1] is recorded as 1.304.
